This passage reports IC50 results from ChEMBL document CHEMBL1158820, “Avrainvilloside, a 6-deoxy-6-aminoglucoglycerolipid from the green alga Avrainvillea nigricans” (J Nat Prod, 2005).

This assay has as its system WEHI-164. In words: Cytotoxicity against mouse WEHI164 cells. Type of assay: functional, cell-based.

By IC50 is commonly meant the point on the concentration scale where inhibition reaches its midpoint. `CCCCCCCCCCCCCCCCCC(=O)OC[C@H](CO[C@H]1O[C@H](CN)[C@@H](O)[C@H](O)[C@H]1O)OC(=O)CCCCCCCCCCCCCCCCC` [AVRAINVILLOSIDE] came in with an IC50 of more than 10 µg/mL.
